Reference: US20230085307A1, “PYRIDAZINONE COMPOUND AND HERBICIDE” (NISSAN CHEMICAL CORPORATION, priority 2019, published 2023)

Tests used:
barnyard grass [1] = test: Test Example 3: herbicidal effect by foliage application, Wagner pot (Table 18, symbol H); format: in vivo, barnyard grass (Echinochloa crus-galli); conditions: 320 g/ha
Summary of the method: (§1)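 Plants were sown in alluvial soil held under 0.1–0.5 cm standing water and grown 14 days in a greenhouse at 25–30 °C. An emulsifiable formulation, water-diluted to the set dose, was then sprayed onto the foliage, and effects were scored three weeks later using previously defined criteria.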

Chinese sprangletop = test: Test Example 3: herbicidal effect by foliage application, Wagner pot (Table 18, symbol D); format: in vivo, chinese sprangletop (Leptochloa chinensis); conditions: 320 g/ha
Summary of the method: as §1

rice flat sedge = test: Test Example 3: herbicidal effect by foliage application, Wagner pot (Table 18, symbol E); format: in vivo, rice flat sedge (Cyperus iria); conditions: 320 g/ha
Summary of the method: as §1

southern crabgrass [2] = test: Test Example 4: herbicidal effect by soil treatment (Table 19, symbol F); format: in vivo, southern crabgrass (Digitaria ciliaris); conditions: amount of applied herbicide 320 g/ha
Summary of the method: (§2)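 Seeds were sown in sterilized diluvial soil and covered with about 1.5 cm of soil. An emulsion formulation diluted with water to a predetermined herbicide amount was sprayed evenly onto the soil surface. Plants grew in a greenhouse at 25° C. to 30° C., and the effect was scored three weeks after application using criteria from an earlier test.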

green foxtail [3] = test: Test Example 4: herbicidal effect by soil treatment (Table 19, symbol G); format: in vivo, green foxtail (Setaria viridis); conditions: amount of applied herbicide 320 g/ha
Summary of the method: as §2

barnyard grass [4] = test: Test Example 4: herbicidal effect by soil treatment (Table 19, symbol H); format: in vivo, barnyard grass (Echinochloa crus-galli); conditions: amount of applied herbicide 320 g/ha
Summary of the method: as §2

wild oat [5] = test: Test Example 4: herbicidal effect by soil treatment (Table 19, symbol I); format: in vivo, wild oat (Avena fatua); conditions: amount of applied herbicide 320 g/ha
Summary of the method: as §2

blackgrass [6] = test: Test Example 4: herbicidal effect by soil treatment (Table 19, symbol J); format: in vivo, blackgrass (Alopecurus myosuroides); conditions: amount of applied herbicide 320 g/ha
Summary of the method: as §2

Italian ryegrass [7] = test: Test Example 4: herbicidal effect by soil treatment (Table 19, symbol K); format: in vivo, Italian ryegrass (Lolium multiflorum); conditions: amount of applied herbicide 320 g/ha
Summary of the method: as §2

windgrass [8] = test: Test Example 4: herbicidal effect by soil treatment (Table 19, symbol L); format: in vivo, windgrass (Apera spica-venti); conditions: amount of applied herbicide 320 g/ha
Summary of the method: as §2

velvetleaf [9] = test: Test Example 4: herbicidal effect by soil treatment (Table 19, symbol M); format: in vivo, velvetleaf (Abutilon theophrasti); conditions: amount of applied herbicide 320 g/ha
Summary of the method: as §2

redroot pigweed [10] = test: Test Example 4: herbicidal effect by soil treatment (Table 19, symbol N); format: in vivo, redroot pigweed (Amaranthus retroflexus); conditions: amount of applied herbicide 320 g/ha
Summary of the method: as §2

lambsquarters [11] = test: Test Example 4: herbicidal effect by soil treatment (Table 19, symbol O); format: in vivo, lambsquarters (Chenopodium album); conditions: amount of applied herbicide 320 g/ha
Summary of the method: as §2

chickweed [12] = test: Test Example 4: herbicidal effect by soil treatment (Table 19, symbol P); format: in vivo, common chickweed (Stellaria media); conditions: amount of applied herbicide 320 g/ha
Summary of the method: as §2

persian speedwell [13] = test: Test Example 4: herbicidal effect by soil treatment (Table 19, symbol R); format: in vivo, Persian speedwell (Veronica persica); conditions: amount of applied herbicide 320 g/ha
Summary of the method: as §2

southern crabgrass [14] = test: Test Example 5: herbicidal effect by foliage application, plastic box (Table 20, symbol F); format: in vivo, southern crabgrass (Digitaria ciliaris); conditions: amount of applied herbicide 320 g/ha; foliage application after 14-day growth; evaluated three weeks after application
Summary of the method: (§3)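 Plants sown in sterilized diluvial soil and grown 14 days in a greenhouse at 25° C to 30° C, then sprayed on the foliage with the compound's emulsion diluted in water to a predetermined herbicide amount. Injury to weeds and crops scored three weeks after application on a visual rating scale.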

green foxtail [15] = test: Test Example 5: herbicidal effect by foliage application, plastic box (Table 20, symbol G); format: in vivo, green foxtail (Setaria viridis); conditions: amount of applied herbicide 320 g/ha; foliage application after 14-day growth; evaluated three weeks after application
Summary of the method: as §3

barnyard grass [16] = test: Test Example 5: herbicidal effect by foliage application, plastic box (Table 20, symbol H); format: in vivo, barnyard grass (Echinochloa crus-galli); conditions: amount of applied herbicide 320 g/ha; foliage application after 14-day growth; evaluated three weeks after application
Summary of the method: as §3

wild oat [17] = test: Test Example 5: herbicidal effect by foliage application, plastic box (Table 20, symbol I); format: in vivo, wild oat (Avena fatua); conditions: amount of applied herbicide 320 g/ha; foliage application after 14-day growth; evaluated three weeks after application
Summary of the method: as §3

blackgrass [18] = test: Test Example 5: herbicidal effect by foliage application, plastic box (Table 20, symbol J); format: in vivo, blackgrass (Alopecurus myosuroides); conditions: amount of applied herbicide 320 g/ha; foliage application after 14-day growth; evaluated three weeks after application
Summary of the method: as §3

Italian ryegrass [19] = test: Test Example 5: herbicidal effect by foliage application, plastic box (Table 20, symbol K); format: in vivo, Italian ryegrass (Lolium multiflorum); conditions: amount of applied herbicide 320 g/ha; foliage application after 14-day growth; evaluated three weeks after application
Summary of the method: as §3

windgrass [20] = test: Test Example 5: herbicidal effect by foliage application, plastic box (Table 20, symbol L); format: in vivo, windgrass (Apera spica-venti); conditions: amount of applied herbicide 320 g/ha; foliage application after 14-day growth; evaluated three weeks after application
Summary of the method: as §3

velvetleaf [21] = test: Test Example 5: herbicidal effect by foliage application, plastic box (Table 20, symbol M); format: in vivo, velvetleaf (Abutilon theophrasti); conditions: amount of applied herbicide 320 g/ha; foliage application after 14-day growth; evaluated three weeks after application
Summary of the method: as §3

redroot pigweed [22] = test: Test Example 5: herbicidal effect by foliage application, plastic box (Table 20, symbol N); format: in vivo, redroot pigweed (Amaranthus retroflexus); conditions: amount of applied herbicide 320 g/ha; foliage application after 14-day growth; evaluated three weeks after application
Summary of the method: as §3

lambsquarters [23] = test: Test Example 5: herbicidal effect by foliage application, plastic box (Table 20, symbol O); format: in vivo, lambsquarters (Chenopodium album); conditions: amount of applied herbicide 320 g/ha; foliage application after 14-day growth; evaluated three weeks after application
Summary of the method: as §3

chickweed [24] = test: Test Example 5: herbicidal effect by foliage application, plastic box (Table 20, symbol P); format: in vivo, common chickweed (Stellaria media); conditions: amount of applied herbicide 320 g/ha; foliage application after 14-day growth; evaluated three weeks after application
Summary of the method: as §3

persian speedwell [25] = test: Test Example 5: herbicidal effect by foliage application, plastic box (Table 20, symbol R); format: in vivo, Persian speedwell (Veronica persica); conditions: amount of applied herbicide 320 g/ha; foliage application after 14-day growth; evaluated three weeks after application
Summary of the method: as §3

## Cc1nn(C)c(=O)c(-c2c(-c3ccc(OC(F)(F)F)cc3)sc3c(Cl)cccc23)c1O [4-078]
Barnyard grass [1]
  herbicidal effect on barnyard grass (H): 3 (Herbicidal rate of 40% or more and less than 70%)
Chinese sprangletop
  herbicidal effect on Chinese sprangletop (D): 2 (Herbicidal rate of 20% or more and less than 40%)
Rice flat sedge
  herbicidal effect on rice flat sedge (E): 3 (Herbicidal rate of 40% or more and less than 70%)
Southern crabgrass [2]
  Herbicidal effect by soil treatment, F: southern crabgrass: 0 (Herbicidal rate of 5% or less (almost no effect))
Green foxtail [3]
  Herbicidal effect by soil treatment, G: green foxtail: 0 (Herbicidal rate of 5% or less (almost no effect))
Barnyard grass [4]
  Herbicidal effect by soil treatment, H: barnyard grass: 0 (Herbicidal rate of 5% or less (almost no effect))
Wild oat [5]
  Herbicidal effect by soil treatment, I: wild oat: 0 (Herbicidal rate of 5% or less (almost no effect))
Blackgrass [6]
  Herbicidal effect by soil treatment, J: blackgrass: 0 (Herbicidal rate of 5% or less (almost no effect))
Italian ryegrass [7]
  Herbicidal effect by soil treatment, K: Italian ryegrass: 0 (Herbicidal rate of 5% or less (almost no effect))
Windgrass [8]
  Herbicidal effect by soil treatment, L: windgrass: 0 (Herbicidal rate of 5% or less (almost no effect))
Velvetleaf [9]
  Herbicidal effect by soil treatment, M: velvetleaf: 0 (Herbicidal rate of 5% or less (almost no effect))
Redroot pigweed [10]
  Herbicidal effect by soil treatment, N: redroot pigweed: 2 (Herbicidal rate of 20% or more and less than 40%)
Lambsquarters [11]
  Herbicidal effect by soil treatment, O: lambsquarters: 0 (Herbicidal rate of 5% or less (almost no effect))
Chickweed [12]
  Herbicidal effect by soil treatment, P: chickweed: 3 (Herbicidal rate of 40% or more and less than 70%)
Persian speedwell [13]
  Herbicidal effect by soil treatment, R: persian speedwell: 4 (Herbicidal rate of 70% or more and less than 90%)
Southern crabgrass [14]
  Herbicidal effect by foliage application, F: southern crabgrass: 0 (Herbicidal rate of 5% or less (almost no effect))
Green foxtail [15]
  Herbicidal effect by foliage application, G: green foxtail: 0 (Herbicidal rate of 5% or less (almost no effect))
Barnyard grass [16]
  Herbicidal effect by foliage application, H: barnyard grass: 0 (Herbicidal rate of 5% or less (almost no effect))
Wild oat [17]
  Herbicidal effect by foliage application, I: wild oat: 0 (Herbicidal rate of 5% or less (almost no effect))
Blackgrass [18]
  Herbicidal effect by foliage application, J: blackgrass: 0 (Herbicidal rate of 5% or less (almost no effect))
Italian ryegrass [19]
  Herbicidal effect by foliage application, K: Italian ryegrass: 0 (Herbicidal rate of 5% or less (almost no effect))
Windgrass [20]
  Herbicidal effect by foliage application, L: windgrass: 5 (Herbicidal rate of 90% or more (almost completely withered))
Velvetleaf [21]
  Herbicidal effect by foliage application, M: velvetleaf: 3 (Herbicidal rate of 40% or more and less than 70%)
Redroot pigweed [22]
  Herbicidal effect by foliage application, N: redroot pigweed: 5 (Herbicidal rate of 90% or more (almost completely withered))
Lambsquarters [23]
  Herbicidal effect by foliage application, O: lambsquarters: 3 (Herbicidal rate of 40% or more and less than 70%)
Chickweed [24]
  Herbicidal effect by foliage application, P: chickweed: 5 (Herbicidal rate of 90% or more (almost completely withered))
Persian speedwell [25]
  Herbicidal effect by foliage application, R: persian speedwell: 5 (Herbicidal rate of 90% or more (almost completely withered))

## Cc1nn(C)c(=O)c(-c2c(-c3ccc(SC(C)C)cc3)sc3c(Cl)cccc23)c1O [4-096]
Barnyard grass [1]
  herbicidal effect on barnyard grass (H): 5 (Herbicidal rate of 90% or more (almost completely withered))
Chinese sprangletop
  herbicidal effect on Chinese sprangletop (D): 3 (Herbicidal rate of 40% or more and less than 70%)
Rice flat sedge
  herbicidal effect on rice flat sedge (E): 3 (Herbicidal rate of 40% or more and less than 70%)
Southern crabgrass [2]
  Herbicidal effect by soil treatment, F: southern crabgrass: 0 (Herbicidal rate of 5% or less (almost no effect))
Green foxtail [3]
  Herbicidal effect by soil treatment, G: green foxtail: 0 (Herbicidal rate of 5% or less (almost no effect))
Barnyard grass [4]
  Herbicidal effect by soil treatment, H: barnyard grass: 0 (Herbicidal rate of 5% or less (almost no effect))
Wild oat [5]
  Herbicidal effect by soil treatment, I: wild oat: 0 (Herbicidal rate of 5% or less (almost no effect))
Blackgrass [6]
  Herbicidal effect by soil treatment, J: blackgrass: 0 (Herbicidal rate of 5% or less (almost no effect))
Italian ryegrass [7]
  Herbicidal effect by soil treatment, K: Italian ryegrass: 0 (Herbicidal rate of 5% or less (almost no effect))
Windgrass [8]
  Herbicidal effect by soil treatment, L: windgrass: 0 (Herbicidal rate of 5% or less (almost no effect))
Velvetleaf [9]
  Herbicidal effect by soil treatment, M: velvetleaf: 0 (Herbicidal rate of 5% or less (almost no effect))
Redroot pigweed [10]
  Herbicidal effect by soil treatment, N: redroot pigweed: 5 (Herbicidal rate of 90% or more (almost completely withered))
Lambsquarters [11]
  Herbicidal effect by soil treatment, O: lambsquarters: 3 (Herbicidal rate of 40% or more and less than 70%)
Chickweed [12]
  Herbicidal effect by soil treatment, P: chickweed: 3 (Herbicidal rate of 40% or more and less than 70%)
Persian speedwell [13]
  Herbicidal effect by soil treatment, R: persian speedwell: 4 (Herbicidal rate of 70% or more and less than 90%)
Southern crabgrass [14]
  Herbicidal effect by foliage application, F: southern crabgrass: 0 (Herbicidal rate of 5% or less (almost no effect))
Green foxtail [15]
  Herbicidal effect by foliage application, G: green foxtail: 3 (Herbicidal rate of 40% or more and less than 70%)
Barnyard grass [16]
  Herbicidal effect by foliage application, H: barnyard grass: 4 (Herbicidal rate of 70% or more and less than 90%)
Wild oat [17]
  Herbicidal effect by foliage application, I: wild oat: 2 (Herbicidal rate of 20% or more and less than 40%)
Blackgrass [18]
  Herbicidal effect by foliage application, J: blackgrass: 3 (Herbicidal rate of 40% or more and less than 70%)
Italian ryegrass [19]
  Herbicidal effect by foliage application, K: Italian ryegrass: 4 (Herbicidal rate of 70% or more and less than 90%)
Windgrass [20]
  Herbicidal effect by foliage application, L: windgrass: 3 (Herbicidal rate of 40% or more and less than 70%)
Velvetleaf [21]
  Herbicidal effect by foliage application, M: velvetleaf: 3 (Herbicidal rate of 40% or more and less than 70%)
Redroot pigweed [22]
  Herbicidal effect by foliage application, N: redroot pigweed: 5 (Herbicidal rate of 90% or more (almost completely withered))
Lambsquarters [23]
  Herbicidal effect by foliage application, O: lambsquarters: 4 (Herbicidal rate of 70% or more and less than 90%)
Chickweed [24]
  Herbicidal effect by foliage application, P: chickweed: 5 (Herbicidal rate of 90% or more (almost completely withered))
Persian speedwell [25]
  Herbicidal effect by foliage application, R: persian speedwell: 5 (Herbicidal rate of 90% or more (almost completely withered))
